pIC50: −log10 of the molar value.

The record followed here is patent US20120230951A1 (priority 2011, published 2012).

Assay [1] has as its system HCV GT1b replicon (2209-23 cell line, GT-1b Con1 subgenomic replicon in Huh-7). Kind of assay: HCV GT1b replicon luciferase reporter assay. The format is cell-based. To be noted: Hepatitis C virus, Huh-7, 2209-23 cells (GT-1b Con1), Renilla luciferase read 72 hours after addition of compounds, read-out: GT-1b (IC50). The text has this: Determination of compounds HCV GT1b inhibitory replicon activity using the replicon luciferase reporter assay
The 2209-23 cell line was developed at Roche by stable transfection of the hepatoma cell line Huh-7 with a GT-1b Con1 subgenomic bicistronic replicon as previously described. Subgenomic replicon cell line was established in cured Huh7 cells, obtained from R. Bartenschlager (J. Virol. 2003 March; 77 (5):3007-19) The GT-1a H77 subgenomic replicon vector pRLuc H771b 75 S/I, was created by replacing the non structural region of the GT-1b Con1 subgenomic replicon by the one of the H77 strain, except for the first 75 amino acids of the NS3 protein that are from GT-1b Con1 strain. (J. Virol. 2001 77:5352-59) The GT-1a pRLuc H771b 75 S/I subgenomic replicon cell line was established in cured Huh7 cells, obtained from R. Bartenschlager. (J. Virol. 2003 March; 77 (5):3007-19)
All the subgenomic replicon cell lines were cultured in Dulbecco's Modified Eagle Medium (DMEM-Glutamax™-I; Invitrogen Cat #10569-010). The medium was supplemented with 10% Fetal Bovine Serum (Invitrogen Cat #10082-147), 1% penicillin/streptomycin (Mediatech Cat #30-002-CI) and 500 μg/ml of G418 (Mediatech Cat #30-234-CI). Cells were maintained at 37° C. in a humidified 5% CO2 atmosphere.
2209-23 cells were plated at a cell density of 5000 cells per well in 96 well plates (Becton Dickinson, Cat #35 3296). Cells were plated in 90 μl of Dulbecco's Modified Eagle Medium (DMEM-Glutamax™-I), (Invitrogen Cat #10569-010) medium was supplemented with 5% Fetal Bovine Serum (Invitrogen Cat #10082-147), 1% penicillin/streptomycin (Mediatech Cat #30-002-CI). The pRluc H771b 75 S/I cells were plated in 96-well plate at 3000 cells/well in DMEM-Glutamax™-I containing 5% FBS and 1% penicillin/streptomycin in 90 μl final volume. Cells were allowed to equilibrate for 24 hours at 37° C. and 5% CO2 at which time compounds were added. Compounds (or medium as a control) were added 24 hours post-plating in 3 fold dilutions at a final DMSO concentration of 1% in 10 ul volume. Renilla luciferase reporter signal was read 72 hours after addition of compounds using the Renilla Luciferase Assay System (Promega, cat #E2820). EC50 values were defined as the compound concentration at which a 50% reduction in the levels of renilla luciferase reporter was observed as compared to control samples in the absence of compound and was determined by non-linear fitting of compound dose-response data. The EC50 was approximated if maximum percentage inhibition was less than 90% and more than 70%.
For orientation: In antiviral work, replicon cells carry a viral genome segment that copies itself.

Assay [2] concerns GT-1a pRLuc H771b 75 S/I subgenomic replicon cell line. Kind of assay: HCV GT-1a replicon luciferase reporter assay. The format is cell-based. The conditions noted are these: Hepatitis C virus, GT1A, 72 h, read-out: GT-1a (IC50) (nM). A digest of the protocol:
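Huh-7-derived subgenomic replicon cells (GT-1b Con1 2209-23, 5000/well; GT-1a H77 chimera with Con1 NS3 first 75 aa, 3000/well) in 5% FBS DMEM; compounds added 24 h post-plating, 3-fold dilutions, 1% DMSO. Renilla luciferase read after 72 h; EC50 is 50% signal reduction versus untreated, non-linear fit.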

As a reminder, the pIC50 is the negative decadic logarithm of the IC50, by convention in mol/L. For orientation: IC50 means the concentration that gives 50% inhibition. Consider `COC(=O)NC(C(=O)N1CCCC1c1ncc(-c2ccc(-c3ccc(-c4cnc([C@@H]5Cc6cc(Br)cc7c6N5C(=O)[C@@H](NC(=O)OC)CC7)[nH]4)cc3)cc2)[nH]1)C(C)C` (stereo in doubt) [Compound I-25, {(2S,5S)-9-Bromo-2-[5-(4′-{2-[(R)-1-((R)-2-methoxycarbonylamino-3-methyl-butyryl)-pyrrolidin-2-yl]-3H-imidazol-4-yl}-biphenyl-4-yl)-1H-imidazol-2-yl]-4-oxo-1,2,4,5,6,7-hexahydro-azepino[3,2,1-hi]indol-5-yl}-carbamic acid methyl ester], for which the pIC50 in assay [1] was 8.92. For the same compound, the IC50 in assay [2] is 31.2 nM.
